Laboratory results published in patent US10729653B2, “Pharmaceutical compositions comprising 2-oxo-1-pyrrolidine derivatives” (UCB BIOPHARMA SRL, priority 2009, dated 2020).

What was measured:
[1] = test system: refractory partial onset seizures; conditions: adult patients, adjunctive treatment; cited from earlier work
rat hippocampal slices [2] = conditions: background statement; cited from earlier work
[3] = test system: fully amygdala-kindled rats; experiment: fully amygdala-kindled rats; type: in vivo, rat; conditions: for dose from which a significant suppression in motor-seizure severity is induced: fully amygdala-kindled rats
[4] = test system: genetically sound-sensitive male mice; experiment: audiogenic seizures in mice; type: in vivo; conditions: audiogenic seizure-susceptible mice; i.p., brivaracetam 30 min, levetiracetam 60 min pretreatment
Protocol: Audiogenic seizures in mice: Genetically sound-sensitive male mice (16-28 g; n=10 per group), responding with wild running, clonic and tonic convulsions to an acoustic stimulation, were used. Audiogenic seizures were induced by an acoustic stimulus (90 dB, 10-20 kHz) applied for 30 s. The mice were pretreated with either saline, brivaracetam (i.p., 30 min) or levetiracetam (i.p., 60 min), and the proportion of mice protected against clonic convulsions was used as the end point to assess anticonvulsant activity.

rat hippocampal slices [5] = experiment: epileptiform responses in hippocampal slices (CA3 field potentials); type: cell-based, Sprague-Dawley rats; parameters: rate of spontaneous field bursting: dose or concentration left out as unconfirmed; conditions: for evoked epileptiform responses (PS1 amplitude, repetitive PSs) in CA3: high-K+/low-Ca2+ fluid (HKLCF) perfusion, fimbrial stimulation
Protocol: The effect of brivaracetam on epileptiform responses induced by high-K+/low-Ca2+ concentrations or by bicuculline was examined in transverse hippocampal slices prepared from Sprague-Dawley rats according to previously reported standard procedures. The epileptiform responses were induced by passing from a normal perfusion of artificial cerebrospinal fluid (ACSF) (K+3 mM; Ca2+2.4 mM) to either high-K+/low-Ca2+ fluid (HKLCF) (K+7.5 mM; Ca2+0.5 mM) or to […] bicuculline methiodide (BMI)-containing ACSF.
Extracellular field potentials (FPs) were recorded in the CA3 area of the slices with 2 M NaCl-filled glass microelectrodes. The evoked FPs were recorded at 10-min intervals in response to fimbrial stimulation with constant current rectangular pulses that elicit a single population spike (PS) of 50-75% of the maximal amplitude when the slice is in ACSF. In the HKLCF model, 2 min of spontaneous activity were also recorded, in the middle of each 10-min interval between the recordings of evoked responses.
Either brivaracetam or levetiracetam was added to the bathing fluid of the slices 20 min before shifting from ACSF to either HKLCF or […] BMI-containing ACSF, and was kept in the perfusion fluid throughout the experiment.

[6] = test system: tonic hindlimb extension induced by a maximal electroshock in mice; experiment: maximal electroshock in mice; type: in vivo; conditions: i.p. 30 min before seizure induction; higher ED50 values than in audiogenic mice
corneal kindling of mice = experiment: corneal kindling of mice; type: in vivo
post-herpetic neuralgia = conditions: patients; cited from earlier work
GAERS rats = experiment: spontaneous SWDs in GAERS rats; type: in vivo, rat
[7] = test system: pentylenetetrazol-induced clonic convulsions in mice; experiment: chemically induced seizures in mice (pentylenetetrazol); type: in vivo; conditions: i.p. 30 min before seizure induction; higher ED50 values than in audiogenic mice
Protocol: The dose was selected based on dose-effect curves in saline-treated animals as the convulsive dose inducing clonic convulsions of all four extremities in 97% of the animals. Immediately after administration of the chemoconvulsant, the mice were placed individually in small plastic cages (25 13 8 cm) and observed for the presence of clonic convulsions in all four extremities, for 60 min. The occurrence of tonic convulsions (hindlimb extension) and mortality was also recorded during this interval. The proportion of mice protected against clonic convulsions was calculated and used as the end point for anticonvulsant activity.

| Structure (SMILES) | efficacy in the treatment of epilepsy [1] | epileptiform responses induced by high-K+/low-Ca2+ concentrations and by bicuculline (rat hippocampal slices [2]) | dose from which a significant suppression in motor-seizure severity is induced [3] [mg/kg] | after-discharge duration ([3]; up to 1700 mg kg-1) | protection against the expression of clonic convulsions [4] | evoked epileptiform responses (PS1 amplitude, repetitive PSs) in CA3 (rat hippocampal slices [5]) | after-discharge duration ([3]; highest dose tested (212.3 mg kg-1)) | protection against tonic hindlimb extension induced by a maximal electroshock [6] | incidence of generalized motor seizures after termination of treatment (corneal kindling of mice; continued corneal stimulations, group previously treated with the highest dose) | incidence of generalized motor seizures (corneal kindling of mice; pretreatment during corneal kindling, levetiracetam at higher doses) | efficacy in post-herpetic neuralgia (post-herpetic neuralgia) | rate of spontaneous field bursting (rat hippocampal slices [5]; HKLCF) | dose from which spontaneous SWDs are significantly suppressed (GAERS rats; GAERS rats) [mg/kg] | inhibition of spontaneous SWDs (GAERS rats; highest dose tested (67.9 mg kg-1)) | protection against clonic convulsions induced by pentylenetetrazol [7] |
| --- | --- | --- | --- | --- | --- | --- | --- | --- | --- | --- | --- | --- | --- | --- | --- |
| CC[C@@H](C(N)=O)N1C[C@H](C=C(F)F)CC1=O [Seletracetam, (2S)-2-[(4S)-4-(2,2-difluorovinyl)-2-oxo-pyrrolidin-1-yl]butanamide] | effective in the treatment of epilepsy | – | – | – | – | – | – | – | – | – | – | – | – | – | – |
| CC[C@@H](C(N)=O)N1CCCC1=O [Levetiracetam] | – | reduces epileptiform responses | ≥ 170 | inactive | protected | reduced these epileptiform responses | – | – | – | – | – | – | – | – | – |
| CCC[C@@H]1CC(=O)N([C@@H](CC)C(N)=O)C1 [Brivaracetam, (2S)-2-[(4R)-2-oxo-4-propyl-pyrrolidin-1-yl]butanamide] | effective in the treatment of epilepsy | – | ≥ 21.2 | – | protected | reduced these epileptiform responses | significantly reduced the after-discharge duration | protected | persistent reduction in the incidence of generalized motor seizures | significant reduction in the incidence of generalized motor seizures | effective in the treatment of patients with post-herpetic neuralgia | reduced the rate of this spontaneous bursting | ≥ 2.1 | complete inhibition | protected |
